According to ChEMBL document CHEMBL4334528, “Structure, Biosynthesis, and Bioactivity of Photoditritide from Photorhabdus temperata Meg1” (J Nat Prod, 2019):
≈ marks a conversion by molar mass, not a printed value.

How the values were obtained:
Clavispora lusitaniae = test: Antifungal activity against Candida lusitaniae DSM 70102 assessed as fungal growth inhibition by EUCAST method; format: functional
Micrococcus luteus = test: Antibacterial activity against Micrococcus luteus assessed as bacterial growth inhibition by CLSI protocol based broth microdilution assay; format: functional
Escherichia coli = test: Antibacterial activity against Escherichia coli OP50 assessed as bacterial growth inhibition by CLSI protocol based broth microdilution assay; format: functional
[1] = test system: Trypanosoma brucei rhodesiense; test: Antitrypanosomal activity against Trypanosoma brucei rhodesiense STI B900 measured after 72 hrs by alamar blue dye based fluorimetry analysis; format: functional, organism-based; conditions: STI B900, 72 h
Trypanosoma cruzi = test: Antitrypanosomal activity against Trypanosoma cruzi Tulahuen C4 infected in rat L6 cells measured after 96 hrs by inverted microscopy analysis; format: functional, organism-based; conditions: Tulahuen C4, L6, 96 h
Leishmania donovani = test: Antileishmanial activity against Leishmania donovani MHOM/ET/67/L82 measured after 72 hrs by alamar blue dye based fluorimetry analysis; format: functional, organism-based; conditions: MHOM/ET/67/L82, 72 h
L6 = test: Cytotoxicity against rat L6 cells measured after 72 hrs by alamar blue dye based fluorimetry analysis; format: cell-based; conditions: L6, 72 h
Plasmodium falciparum = test: Antiplasmodial activity against Plasmodium falciparum NF54 measured after 24 hrs in presence of [3H] hypoxanthine by liquid scintillation counter analysis; format: functional, organism-based

Row | SMILES | MIC (Clavispora lusitaniae) [µM] | MIC (Micrococcus luteus) [µM] | MIC (Escherichia coli) [µM] | IC50 (L6) [µM] | also measured
1 | C[C@@H]1[C@H](O)[C@@H](C)/C=C/C=C/C=C/C=C/C=C/C=C/C=C/[C@H](O[C@@H]2O[C@H](C)[C@@H](O)[C@H](N)[C@@H]2O)C[C@@H]2O[C@](O)(C[C@@H](O)C[C@@H](O)[C@H](O)CC[C@@H](O)C[C@@H](O)CC(=O)O[C@H]1C)C[C@H](O)[C@H]2C(=O)O [AMPHOTERICIN B] | 0.42 (≈ 0.388 µg/mL) | – | – | – | –
2 | N=C(N)NCCCC[C@H]1NC(=O)[C@H](Cc2c[nH]c3ccccc23)NC(=O)[C@H](Cc2ccc(O)cc2)NC(=O)[C@@H](Cc2c[nH]c3ccccc23)NC(=O)[C@@H](Cc2ccc(O)cc2)NC(=O)[C@@H](CCCCNC(=N)N)NC1=O | > 96 | 3 (≈ 3.12 µg/mL) | 24 (≈ 24.9 µg/mL) | 83 | IC50 [1]: 13 µM; IC50 (Trypanosoma cruzi): 71 µM; IC50 (Leishmania donovani): > 100 µM; IC50 (Plasmodium falciparum): 27 µM
3 | COc1cc([C@@H]2c3cc4c(cc3[C@H](O)[C@H]3COC(=O)[C@H]23)OCO4)cc(OC)c1OC [PODOFILOX] | – | – | – | 0.007 | –

Further lines, with some results ahead:

Row | MIC (Clavispora lusitaniae) [µM] | MIC (Micrococcus luteus) [µM] | MIC (Escherichia coli) [µM] | SMILES | IC50 (L6) [µM] | also measured
4 | – | 4.2 (≈ 1.47 µg/mL) | – | CC1(C)S[C@@H]2[C@H](NC(=O)[C@H](N)c3ccccc3)C(=O)N2[C@H]1C(=O)O [AMPICILLIN] | – | –
5 | – | – | 0.6 (≈ 0.194 µg/mL) | O=C(N[C@H](CO)[C@H](O)c1ccc([N+](=O)[O-])cc1)C(Cl)Cl [CHLORAMPHENICOL] | – | –
